Experimental data taken from ChEMBL document CHEMBL1201862, “PubChem BioAssay data set” (2004).
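Five concentrations, 48 hours, 96-well plates. The concentration for 50% growth inhibition is given as GI50.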 Activity calls are given as the source filed them. No stated cut-off is given here; in the data, active = GI50 up to about 1.1 µM and inactive = higher.

Key:
Assay in all cases: inhibition of tumour cell growth, NCI panel, 48 h
A498 = system: A498
DU-145 = system: DU-145
EKVX = system: EKVX
HCT-15 = system: HCT-15
MDA-MB-231 = system: MDA-MB-231
MDA-MB-435 = system: MDA-MB-435
MDA-N = system: MDA-N
MOLT-4 = system: MOLT-4
Malme-3M = system: Malme-3M
NCI-H522 = system: NCI-H522
PC-3 = system: PC-3
SF-268 = system: SF-268
SF-295 = system: SF-295
SF-539 = system: SF-539
SK-MEL-28 = system: SK-MEL-28
SK-OV-3 = system: SK-OV-3
SR = system: SR
UACC-257 = system: UACC-257
UACC-62 = system: UACC-62
ACHN = system: ACHN

SMILES	GI50 (A498)	GI50 (DU-145)	GI50 (EKVX)	GI50 (HCT-15) [µM]	GI50 (MDA-MB-231)	GI50 (MDA-MB-435)	GI50 (MDA-N)	GI50 (MOLT-4)	GI50 (Malme-3M)	GI50 (NCI-H522)	GI50 (PC-3)	GI50 (SF-268)	GI50 (SF-295)	GI50 (SF-539)	GI50 (SK-MEL-28)	GI50 (SK-OV-3)	GI50 (SR)	GI50 (UACC-257)	GI50 (UACC-62)	GI50 (ACHN)
O=C(/C=C/c1cc2ccccc2o1)N1CCN(c2ccccn2)CC1	> 100 µM (inactive)	> 100 µM (inactive)	95.5 µM (inactive)	74.6	90.2 µM (inactive)	> 100 µM (inactive)	> 100 µM (inactive)	19 µM (inactive)	79.6 µM (inactive)	28 µM (inactive)	50.4 µM (inactive)	> 100 µM (inactive)	> 100 µM (inactive)	> 100 µM (inactive)	35.9 µM (inactive)	> 100 µM (inactive)	> 100 µM (inactive)	> 100 µM (inactive)	86.7 µM (inactive)	
CCOC(=O)Nc1[nH]cc(-c2ccccc2)c1C#N	> 100 µM (inactive)	> 100 µM (inactive)	> 100 µM (inactive)	> 100	> 100 µM (inactive)	> 100 µM (inactive)	> 100 µM (inactive)	> 100 µM (inactive)	> 100 µM (inactive)	> 100 µM (inactive)	> 100 µM (inactive)	> 100 µM (inactive)	> 100 µM (inactive)		> 100 µM (inactive)	> 100 µM (inactive)	> 100 µM (inactive)		> 100 µM (inactive)	> 100 µM (inactive)
COc1ccc(C2c3cc4c(cc3OC(NNS(=O)(=O)c3ccc(C)cc3)C2C)OCO4)cc1 (configuration not stated)	78.5 µM (inactive)	> 100 µM (inactive)		70.1	> 100 µM (inactive)	54.6 µM (inactive)	58.3 µM (inactive)	13.1 µM (inactive)	> 100 µM (inactive)	11.8 µM (inactive)	21 µM (inactive)	> 100 µM (inactive)	21.9 µM (inactive)	> 100 µM (inactive)	> 100 µM (inactive)	> 100 µM (inactive)	9.12 µM (inactive)	52.6 µM (inactive)	71.6 µM (inactive)	74 µM (inactive)
COc1ccc2c(c1)CC[C@@H]1C2CC[C@]2(C)C(=O)N(CCN(C)C)C(=O)CC12 (some centres not stated)	> 100 µM (inactive)	> 100 µM (inactive)	> 100 µM (inactive)		> 100 µM (inactive)	> 100 µM (inactive)	> 100 µM (inactive)	> 100 µM (inactive)	> 100 µM (inactive)	> 100 µM (inactive)	> 100 µM (inactive)	> 100 µM (inactive)	> 100 µM (inactive)	> 100 µM (inactive)	> 100 µM (inactive)	> 100 µM (inactive)	> 100 µM (inactive)	> 100 µM (inactive)	> 100 µM (inactive)	> 100 µM (inactive)
O=c1[nH]c2c(S)nc(O)nc2n1-c1ccccc1	> 100 µM (inactive)	> 100 µM (inactive)	> 100 µM (inactive)	> 100	> 100 µM (inactive)	> 100 µM (inactive)	> 100 µM (inactive)	> 100 µM (inactive)	> 100 µM (inactive)	> 100 µM (inactive)	> 100 µM (inactive)	> 100 µM (inactive)	> 100 µM (inactive)		> 100 µM (inactive)		> 100 µM (inactive)	> 100 µM (inactive)	> 100 µM (inactive)	> 100 µM (inactive)
Cc1c(-c2ccccc2)c(C#N)c2nnn(C3CCCCC3)c(=O)n12	65.8 µM (inactive)	> 100 µM (inactive)	37 µM (inactive)	> 100	21.6 µM (inactive)	> 100 µM (inactive)	> 100 µM (inactive)		> 100 µM (inactive)	> 100 µM (inactive)	20.2 µM (inactive)	> 100 µM (inactive)	29.5 µM (inactive)	47.4 µM (inactive)	> 100 µM (inactive)	60.3 µM (inactive)	24.8 µM (inactive)	> 100 µM (inactive)	> 100 µM (inactive)	50.5 µM (inactive)
